Experimental data from BindingDB's records for doi:10.1016/j.bmcl.2011.07.114 (Pfizer, 2011).

Biological target: Histamine H4 receptor (Homo sapiens, UniProt Q9H3N8)
Test: Displacement of [3H]histamine from human histamine H4 receptor expressed in CHO cells after 90 mins by scintillation counting technique

| Ki | Compound |
| --- | --- |
| 20 µM | COCc1ccc(CN2CC[C@H](Nc3cc(NCCC(C)(C)C)ncn3)C2)o1 |
| 20 µM | CC(C)(C)CCNc1cc(N[C@H]2CCN(Cc3cccc(F)c3O)C2)ncn1 |
